The text below walks through data of publication PMC11785791, “Cryo-EM structure of the calcium-sensing receptor complexed with the kokumi substance γ-glutamyl-valyl-glycine” (Scientific Reports, 2025).

The format of the series is physicochemical. Particulars: pH 7.4.

SMILES strings stand for the structures.

Consider `N[C@@H](Cc1c[nH]c2ccccc12)C(=O)O` [L-Trp, L-tryptophan], for which the “Solubility in the assay buffer” value was “low solubility”.
